Source: patent US8993595B2, “Macrocyclic serine protease inhibitors” (priority 2009, dated 2015)

Assays:
[1] = biological target: T1, HCV NS3-4A Protease Genotype 2a (Hepatitis C virus genotype 2a, UniProt Q99IB8); test: HCV protease assay, recombinant NS3-4A genotype 2a; type: biochemical; conditions: mean ± SD, 3 experiments
T1 construct: recombinant HCV NS3-4A proteases
Protocol: The compounds were tested at a variety of concentrations in assay buffer containing a final DMSO concentration of 5%. Reactions were allowed to proceed for 60 min at room temperature and fluorescence measurements were recorded with a Tecan Infinity Spectrofluorimeter. The IC50 values were determined from the percent inhibition versus concentration data using a sigmoidal non-linear regression analysis based on four parameters with Tecan Magellan software.
Compound 52 was tested against genotypes 1a, 1b, 2a, 3a, and 4a of recombinant HCV NS3-4A proteases, along with other cellular proteases.

[2] = system: Replicon cells (genotype 1b); test: Long-term treatment assay in replicon cells; type: cell-based, HCV
Protocol: Compound 52 was tested in a long-term treatment assay. Replicon cells (genotype 1b) were treated with the compound, without G418, for 14 days, and the level of replicon RNA was measured at multiple time points. At the end of the 14-day treatment, cells were cultured in the absence of the compound, but with or without G418, in 10 cm dishes for 21 days. Surviving cell colonies were then stained with crystal violet and counted.

[3] = system: cardiovascular and respiratory systems of monkeys; type: in vivo, cynomolgus monkey; conditions: oral doses up to 250 mg/kg
Excerpt: (§1) One in vitro GLP safety pharmacology study evaluated the effects of compound 52 on hERG channel currents in voltage-clamped human embryonic kidney cells (HEK293) stably expressing the human ether-à-go-go-related gene (hERG) channel. Four in vivo GLP safety pharmacology studies evaluated the potential effects of the compound on the cardiovascular and respiratory systems in the cynomolgus monkey and on the central nervous, renal, and gastrointestinal systems in the CD-1 mouse at single oral doses up to 250 mg/kg of compound 52.

[4] = in vitro; conditions: human, Caco-2, pH 7.4
Protocol: Caco-2 cells were grown to confluence on collagen-coated, microporous, polycarbonate membranes in 12-well Costar Transwell plates. 5 μM of compound 52 was prepared in Hanks balanced salt solution containing 10 mM HEPES and 15 mM glucose at a pH of 7.4. Cell monolayers were dosed on the apical side (A-to-B) or basolateral side (B-to-A). Samples were taken from the receiver chambers at 120 min and quantified by LC-MS/MS.

[5] = biological target: T2, HCV NS3-NS4A protease (Hepatitis C virus genotype 1a, UniProt P27958); test: HCV Protease Assay (SensoLyte 620 HCV Protease Assay kit); type: biochemical; conditions: 1.2 nM HCV NS3-NS4A protease, 60 min, room temperature
T2 construct: HCV NS3-NS4A protease, which was obtained according to Taremi et al; made in house
Protocol: Measurement of the inhibitory effect of compounds on HCV protease activity was performed with the SensoLyte™ 620 HCV Protease Assay kit from AnaSpec, Inc. (San Jose, Calif.) under conditions described by the supplier using 1.2 nM HCV NS3-NS4A protease, which was obtained according to Taremi et al. (Protein Science, 1998, 7, 2143-2149). The compounds were tested at a variety of concentrations in assay buffer containing a final DMSO concentration of 5%. Reactions were allowed to proceed for 60 min at room temperature and fluorescence measurements were recorded with a Tecan Infinity Spectrofluorimeter. The IC50 values were determined from the percent inhibition versus concentration data using a sigmoidal non-linear regression analysis based on four parameters with Tecan Magellan software.

[6] = system: Zluc cell line (genotype 1b replicon with luciferase, unselected); test: Extent of resistance after selection, luciferase assay, Zluc; type: cell-based, HCV; conditions: selecting conc. 0 nM, EC50 resistant / EC50 wild-type
Protocol: (§2) Replicon cells (genotype 1a or 1b) were treated with various concentrations of compound 52 in the presence of G418. Treatment-emergent genotypic changes were identified by population sequencing of NS3 (both protease and helicase regions). The activity of compound 52 and other compounds was evaluated by NS5A western blot after selection or luciferase assay during and after selection.

[7] = Cytotoxicity in parallel, colorimetric proliferation assay, 1b replicon cells; type: cell-based; conditions: human, replicon cells (genotype 1b)
[8] = system: C-1a cell line (genotype 1a replicon selected with 25 nM, D168A); test: Extent of resistance after selection, C-1a; type: cell-based, HCV; conditions: selecting conc. 25 nM
Protocol: as §2

[9] = system: 1a replicon; test: HCV replicon luciferase assay, genotype 1a; type: cell-based
Protocol: Compound 52 was tested against genotypes 1a, 1b, and 2a in an HCV replicon assay as described in Example 2. Replicon cells (genotype 1a or 1b) were seeded onto 96-well plates, cultured for three days in the presence of the compound, and subject to a luciferase assay.

[10] = system: mice; conditions: mouse, in vivo
Protocol: (§3) Daily oral doses of compound 52 (up to 250 mg/kg/day) in PEG 400 were administered to both mice and monkeys for 28 consecutive days. Toxicity was evaluated based on mortality, clinical observations, body weights, food consumption, ophthalmological examination, hematology and serum chemistry, organ weights, gross and microscopic examinations. ECG, coagulation and urinalysis were also performed in the monkey study.

[11] = system: monkeys; conditions: oral doses up to 250 mg/kg
Protocol: as §3

[12] = system: A-1a cell line (genotype 1a replicon selected with 10 nM, D168A); test: Extent of resistance after selection, A-1a; type: cell-based, HCV; conditions: selecting conc. 10 nM
Protocol: as §2

[13] = system: D-1a cell line (genotype 1a replicon selected with 25 nM, D168A); test: Extent of resistance after selection, D-1a; type: cell-based, HCV; conditions: selecting conc. 25 nM
Protocol: as §2

[14] = system: human peripheral blood lymphocytes; type: cell-based; conditions: up to 84 μg/mL, with and without S9
Protocol: The potential for compound 52 to induce mutations in a bacterial system (S. typhimurium and E. coli—at concentrations up to 5,000 μg/plate), to induce chromosomal aberrations in cultures of human peripheral blood lymphocytes (at concentrations up to 84 μg/mL), and to induce clastogenic and/or aneugenic activity in CD-1 mice (at oral doses up to 2,000 mg/kg) was evaluated. The two in vitro studies were performed with and without the addition of a mammalian metabolic activation system (rat liver S9 subcellular fraction).

[15] = system: central nervous, renal, and gastrointestinal systems of mice; parameters: species or system CD-1 mouse; conditions: mouse, in vivo
Excerpt: as §1

[16] = in vitro; type: cell-based; conditions: human; GS4.1 cells, Cell Titer 96 AQueous One Solution
Protocol: For cytotoxicity evaluation, GS4.1 cells were treated with compounds as described above and cellular viability was monitored using the Cell Titer 96 AQueous One Solution Cell Proliferation Assay (Promega). CC50 values were determined from the % cytotoxicity versus concentration data with Tecan Magellan software as described above.

SMILES: COc1ccc2c(O[C@H]3CCN4C(=O)N(C)CCCC/C=C\[C@@H]5C[C@@]5(C(=O)NS(=O)(=O)C5(C)CC5)NC(=O)[C@@H]4C3)cc(-c3nc(C(F)(F)F)cs3)nc2c1C [Compound 52, 1-methyl-cyclopropanesulfonic acid{(Z)-(1S,4R,6S,18S)-18-[7-methoxy-8-methyl-2-(4-trifluoromethyl-thiazol-2-yl)-quinolin-4-yloxy]-13-methyl-2,14-dioxo-3,13,15-triaza-tricyclo[13.4.0.0*4,6*]nonadec-7-ene-4-carbonyl}amide]
- IC50 [1]: 1.9 ± 0.5 nM
- colonies remained on average ([2]; 14-day treatment with 10 nM, then cultured with G418 for 21 days): 6 colonies
- mean maximal RNA reduction ([2]; replicon RNA, after 10 days of treatment with 10 nM, without G418): 3.7 log10
- effects on the cardiovascular and respiratory systems [3]: no effects
- Papp [4]: 1.8 ×10⁻⁶ cm/s
- efflux ratio [4]: 2.7
- IC50 [5]: < 1000 nM
- Fold-Change [6]: 1
- CC50 at 5 days [7]: 25200 ± 5300 nM
- Fold-Change [8]: 900 ± 64
- Selectivity Index [9]: >22,647
- EC50 ([9]; Hepatitis C virus, 72 h, three days, luciferase assay): 3.4 ± 1.1 nM
- tolerability in 4-week GLP toxicology study [10]: well tolerated
- tolerability in 4-week GLP toxicology study [11]: well tolerated
- Fold-Change [12]: 589 ± 442
- Fold-Change [13]: >2750
- genotoxicity, human lymphocyte chromosomal aberration test [14]: no genotoxicity
- effects on the central nervous system, renal function, or gastrointestinal motility [15]: no effects
- CC50 [16]: 10000 to 75000 nM
